From patent US11882834B2, “Microbiocidal thiazole derivatives” (SYNGENTA PARTICIPATIONS AG, priority 2017, dated 2024)

Key:
[1] = test system: Phaeosphaeria nodorum (Septoria nodorum); test: Phaeosphaeria nodorum (Septoria nodorum) / wheat / leaf disc preventative (glume blotch); type: in vivo; details: 200 ppm in the formulation, wheat leaf segments cv. Kanzler, compared to untreated, 5-7 days after application
Method: Phaeosphaeria nodorum (Septoria nodorum)/Wheat/Leaf Disc Preventative (Glume Blotch) Wheat leaf segments cv. Kanzler are placed on agar in a multiwell plate (24-well format) and sprayed with the formulated test compound diluted in water. The leaf disks are inoculated with a spore suspension of the fungus 2 days after application. The inoculated test leaf disks are incubated at 20° C. and 75% rh under a light regime of 12 h light/12 h darkness in a climate cabinet and the activity of a compound is assessed as percent disease control compared to untreated when an appropriate level of disease damage appears in untreated check leaf disks (5-7 days after application).

[2] = test system: Mycosphaerella arachidis (Cercospora arachidicola); test: Mycosphaerella arachidis (Cercospora arachidicola) / liquid culture (early leaf spot); type: cell-based; details: 200 ppm in the formulation; liquid culture (PDB), growth determined photometrically 4-5 days after application; compared to untreated
Method: Mycosphaerella arachidis (Cercospora arachidicola)/Liquid Culture (Early Leaf Spot) Conidia of the fungus from cryogenic storage are directly mixed into nutrient broth (PDB potato dextrose broth). After placing a (DMSO) solution of test compound into a microtiter plate (96-well format), the nutrient broth containing the fungal spores is added. The test plates are incubated at 24° C. and the inhibition of growth is determined photometrically 4-5 days after application.

For Cc1sc(Nc2cc(F)nc(F)c2)nc1C(=O)NC1CCC1(C)C (centres unmarked) [Compound I.r.19, 2-[(2,6-difluoro-4-pyridyl)amino]-N-(2,2-dimethylcyclobutyl)-5-methyl-thiazole-4-carboxamide], the disease control [1] was “at least 80%” and the disease control [2] was “at least 80%”.
